# Assay results taken from US20220220450A1, “FABRICATION OF A BIOMIMETIC PLATFORM SYSTEM AND METHODS OF USE” (Cornell University Center for Technology Licensing, priority 2017, published 2022).
# Columns and labels:
# adipocytes = assay: Doxorubicin permeability of 3D-breast component biomimetic platform without cancer cells (BM only); assay type: cell-based, human; conditions: 0.6% (w/v) collagen, 15% v/v adipocytes, stromal cells, breast organoids, no cancer cells; increasing doxorubicin concentrations 0-10 μM; FIG. 19C
# MDA-MB468 cancer cells = assay: Doxorubicin response in 3D-breast component versus 3D-collagen only biomimetic platform system; assay type: cell-based, human; conditions: doxorubicin 0-10 μM, FIG. 20C
# MDA-MB231 cancer cells [1] = assay: Doxorubicin response of cancer cells in 3D-collagen only biomimetic platform system; assay type: cell-based, human; conditions: 0.6% (w/v) collagen, 200,000 MDA-MB231 cells labelled with mCherry; 1-10 μM doxorubicin; FIG. 19B
# Description: Images were analyzed by confocal microscopy.
# MDA-MB231 cancer cells [2] = assay: Doxorubicin response and uptake in 3D-breast component biomimetic platform system with cancer cells
# Description: Lentivirus transfected human cell lines were selected for use in the biomimetic platform systems disclosed herein. Color selection was randomly assigned to ensure proper differentiation between cell types under fluorescent and confocal microscopy. […] Cancer cell lines, MDA-MB231, MDA-MB468, and HS-578T were transfected with mCherry lentivirus.
# Surgical specimens were obtained. In a sterile biosafety hood, breast specimens were homogeneously minced. Excess lipid was carefully removed from tissue by suction, and minced tissue was mixed on a 1:1 ratio with complete Ham's media containing 1 mg/mL of collagenase Type I and 0.01 mg/mL hyaluronidase (for adipocytes and Adipose derived stem cell (ASC)-containing stromal vascular fraction (SVF) isolation) or 1 mg/mL of collagenase type IA and 0.01 mg/mL hyaluronidase (for isolation of breast organoids).
# The total amount of 1×M199 media needed for collagen dilution during the neutralization process was reduced by 2504, to allow for the volume needed for reconstitution of cellular components that were added to neutralize collagen. The Collagen platform without breast components was fully diluted by adding 250 microliters of media with desired number of vascular cells (e.g., pericytes), while the biomimetic platform with breast components was diluted by adding 250 μL of MEGM media containing extracted organoids, SVF containing ASCs, and cancer cells. Components were mixed homogeneously into the neutralized collagen, and mature adipocytes were added to the biomimetic platform containing breast stroma at 15% v/v (v/v refers to the volume of the adipocytes+SVF over the total volume of the biocompatible substrate present in the biomimetic platform system described herein).
# Biomimetic constructs were fixed in formaldehyde for 30 minutes followed by 3 consecutive 5-minute Phosphate Buffered Saline (PBS) washes. […] Images were analyzed by confocal microscopy. […]
# Confocal images for doxorubicin response were analyzed using Imaris™ for visualization of 3D image volume. […]
# HS578T cancer cells = assay: Doxorubicin response in 3D-breast component versus 3D-collagen only biomimetic platform system; assay type: cell-based, human; conditions: doxorubicin 0-10 μM, FIG. 21A-21D
# [3] = 0.6% (w/v) collagen, 15% v/v adipocytes, stromal cells, breast organoids, 200,000 MDA-MB231 cells, 1-10 μM doxorubicin, FIG. 19A
smiles,measurement,setting,value
COc1cccc2c1C(=O)c1c(O)c3c(c(O)c1C2=O)C[C@@](O)(C(=O)CO)C[C@@H]3O[C@H]1C[C@H](N)[C@H](O)[C@H](C)O1 [doxorubicin],permeability of the biomimetic platform and adipocytes to doxorubicin (signal),adipocytes,increased signal
same,"sensitivity of cancer cells to doxorubicin, 3D-breast component versus 3D-collagen only platform",MDA-MB468 cancer cells,decreased sensitivity
same,absolute number of cells (mCherry and DAPI signals),MDA-MB231 cancer cells [1],decrease in the absolute number of cells
same,absolute number of cells (mCherry and DAPI signals),MDA-MB231 cancer cells [2]; [3],decrease in the absolute number of cells
same,doxorubicin uptake (intrinsic fluorescence signal),MDA-MB231 cancer cells [2]; [3],uptake was increased
same,"sensitivity of cancer cells to doxorubicin, 3D-breast component versus 3D-collagen only platform","MDA-MB231 cancer cells [2]; MDA-MB231, doxorubicin 0-10 μM, FIG. 20A-20B",decreased sensitivity
same,"sensitivity of cancer cells to doxorubicin, 3D-breast component versus 3D-collagen only platform",HS578T cancer cells,decreased sensitivity
